{
  "source": "patent US8809052B2",
  "about": "“Methods of generating mature oligodendrocytes” (Yeda Research and Development Co. Ltd., priority 2006, dated 2014)",
  "key": {"human ES cells": {"system": "human ES cells", "assay": "RT-PCR gene expression at the different culture steps", "type": "cell-based", "protocol": "RT-PCR—total RNA was isolated from cultures at different culture steps using Tri-Reagent (Molecular Research Center, Cincinnati, Ohio) and RT-PCR was carried out by standard technology as previously described (Slutsky et al., 2003). Expression was checked for the following genes, as described in table 2 below, including the expression of the control gene G3PDH. Also provided in the table are primer sequences used for each gene. For G3PDH, primers from Clontech (Palo Alto, Calif., catalog #9805-1) were used."}, "[1]": {"system": "human ES cell-derived neuroglial sphere cells", "assay": "Count of O4+ cells with oligodendrocyte branching morphology per field after terminal differentiation", "type": "cell-based", "protocol": "Differentiation of ES cells into oligodendrocytes—The following steps were taken for initiating ES cell differentiation:\n1. Step T: Transition step—Collagenase detached huESC colonies pooled from six 6-well plates, into a 15 ml tube supplemented with ES1 medium, were let to sediment by gravity for about 30 minutes in the incubator (37° C.). Colonies were then washed once in ES1 medium and then transferred to 12×6 cm tissue culture plates in 5 ml transition medium (T-medium) consisting of 50% (v/v) ES1 medium, and 50% (v/v) of ITTSPP/B27 medium. Growth factors (GF), recombinant human EGF (20 ng/ml, R&D Systems, Minneapolis, Minn.) and recombinant human bFGF (4 ng/ml, Biotest, Dreieich, Germany) were added to the transition medium. Thereafter (1 d), some cells adhered but the bulk of huESC colonies and aggregates remained in suspension and were transferred to 12 bacterial (non-adherent) plates in the same transition medium and cultured for 1 day. Then, 10 μM retinoic acid (RA, Sigma-Aldrich, St. Lewis, Mo.) was added to the T-medium and cells were cultured for an additional day.\n2. Step R: Retinoic acid treatment—The medium was switched to ITTSPP/B27 containing 20 ng/ml of EGF and 10 μM RA. Medium was changed every day for 7 days, and colonies were concentrated by gravity, without centrifugation.\n3. Step S: Suspension culture—During this step, which allows for ripening of neurospheres (NS), the aggregates were cultured in ITTSPP/B27 medium supplemented with 20 ng/ml EGF, for 18 days, changing medium every two days. The ITTSPP/B27 medium was, or was not supplemented with 50 ng/ml Noggin-Fc chimera (R&D systems, Minneapolis, Minn.), in order to examine the effect of noggin.\n4. Steps M1,2: Adherence to matrigel-coated plates—Spheres or aggregates from one original 6-well plate were distributed to another 6-well plate which had been coated for 1.5 hours at room temperature with matrigel (Matrigel low growth factor concentration; BD Biosciences, Clontech, Palo Alto, Calif., diluted 1:30 in DMEM/F12 Pen-Strep). After one day, the unbound aggregates were discarded and fresh ITTSPP/B27 medium, supplemented with 20 ng/ml EGF, was added. Medium was changed every 3-4 days.\n5. Passage with trypsin—Following 1-2 weeks, aggregates were detached and partially dissociated by a short treatment with trypsin 0.05% (2-3 min, 37° C.; Biological industries, Beit Haemek, Israel, diluted in PBS, —Ca and —Mg). Trypsin was rapidly neutralized by addition of 4 volumes of BSA (2 mg/ml; Sigma for Tissue culture) in ITTSPP/B27, and centrifugation at (200 rpm, 10 min), followed by another wash with BSA. This treatment dissociates the aggregates to small clusters that are seeded again onto matrigel-coated plates (at dilution 1:3), in ITTSPP/B27, 20 ng/ml EGF, for another 1-2 weeks (step M2).\n(§1) 6. Steps F1,2: Terminal differentiation on matrigel—In step F1 (3 days), the medium was changed to ITTSPP/B27 containing EGF 5 ng/ml and bFGF 5 ng/ml, together with mouse laminin 1 μg/ml, and Vit C (50 μg/ml; Sigma-Aldrich, St. Lewis, Mo.). Some of the wells were treated with noggin (50 ng/ml Noggin-Fc chimera; R&D systems, Minneapolis, Minn.), 2 days after seeding, and noggin was continued thereafter. In step F2, cells were cultured 6 or 10 days in the same medium without growth factor, but with or without noggin. The medium was changed every two to four days.\nImmunostaining—Cells were fixed in 12 or 24-well tissue culture plastic plates with 4% paraformaldehyde (PFA), washed with PBS, and kept at 4° C. before staining. Non-specific staining was blocked with normal goat serum (5% w/v in PBS) for 30 min at RT. Thereafter primary mouse monoclonal (mMc) antibodies, diluted in 1% goat serum, were administered. Antibodies used were: anti PDGFR (mMc IgG1, Santa Cruz, 1:500), O4 (mMc IgM, R&D Systems, 1:1000), O1 (mMc IgM, received from Dr Sheila Harroch, Pasteur Institute, Paris), anti tubulin-βIII (mMc IgG1, Cowance, 1:1000), and antibody 1281 (human nuclei antigen HNA, Chemicon). […]"}, "Shiverer mice": {"system": "Shiverer mice", "assay": "Transplantation of huES-NSc into brain of shiverer mice, MBP-stained fibers", "type": "in vivo, mouse", "settings": "FIG. 4e", "excerpt": "Animal model—Shiverer mice have an extensive deletion in the MBP gene (Roach et al., 1985) and in a homozygous shi−/− animal there is no MBP immunoreactivity in the CNS. The appearance of fibers showing immunostaining for MBP following transplantation of oligodendrocyte precursors therefore indicates, that the transplanted cells have the capacity to myelinate endogenous neurons (Lachapelle et al., 1983).\nTransplantation of huES-NSc in Shiverer mice—For transplantation, ES cell-derived dissociated neuroglial sphere cells (huEs-NSc) were prepared as described in Example 3. The culture steps from step T to step D3 that were followed, are outlined in Table 1 condition 3. in Example 1. However, Step D3 was for 9 days, with and without 50 ng/ml noggin. Growth factors were then removed for one day, during which 1 μg/ml laminin, and 50 μg/m Vit C were added to the N2/B27 medium (step F2, as described in Example 1). The culture was thereafter subjected to the short trypsin treatment (see Example 1) and the cells were injected intraventricularly to homozygous shiverer mice. One day old shi/shi pups were anesthetized by brief hypothermia and received an injection of 10^5 cells in 2 μl, over a period of 3 minutes, into the brain third ventricule, using a Hamilton 10 μl syringe. The pups were then warmed and returned to their mothers. […]"}, "shiverer brain slices": {"system": "shiverer brain slices", "assay": "Ex vivo transplantation of human ES-NSc on shiverer brain slices (organotypic cultures), MBP staining and electron microscopy", "type": "cell-based, mouse", "protocol": "Immunostaining—Cells were fixed in 12 or 24-well tissue culture plastic plates with 4% paraformaldehyde (PFA), washed with PBS, and kept at 4° C. before staining. Non-specific staining was blocked with normal goat serum (5% w/v in PBS) for 30 min at RT. Thereafter primary mouse monoclonal (mMc) antibodies, diluted in 1% goat serum, were administered. Antibodies used were: anti PDGFR (mMc IgG1, Santa Cruz, 1:500), O4 (mMc IgM, R&D Systems, 1:1000), O1 (mMc IgM, received from Dr Sheila Harroch, Pasteur Institute, Paris), anti tubulin-βIII (mMc IgG1, Cowance, 1:1000), and antibody 1281 (human nuclei antigen HNA, Chemicon). Following overnight exposure to the appropriate antibody (4° C.), biotinylated goat anti-mouse IgG1 (Southern Biotech, 1:50) was added for 30 minutes, followed by Cy3-tagged streptavidine (ABC laboratories, 1:2000). […] Staining for MBP was with rat monoclonal anti MBP (ab7349, AbCam, 1/500), and Cy3-conjugated Affipure goat anti rat IgG (Jackson laboratories, 1:500). […] An Olympus IX-70 FLA microscope with a DVC-1310C digital camera (DVC, Austin, Tex.) was used and images were processed with Photoshop and analyzed with Image-ProPlus software (Media Cybernetics, Silver Spring, Md.), in order to measure Integrated Optic Density (IOD) of color-specific pixels and MBP fiber length. […]"}, "[2]": {"system": "human ES cell-derived oligodendrocytes", "assay": "Number of MBP+ oligodendrocytes by immunostaining", "type": "cell-based", "settings": "step F2, 10 days without GF, noggin vs without noggin; FIG. 2g", "protocol": "as §1\nImmunostaining—Cells were fixed in 12 or 24-well tissue culture plastic plates with 4% paraformaldehyde (PFA), washed with PBS, and kept at 4° C. before staining. Non-specific staining was blocked with normal goat serum (5% w/v in PBS) for 30 min at RT. Thereafter primary mouse monoclonal (mMc) antibodies, diluted in 1% goat serum, were administered. […] An Olympus IX-70 FLA microscope with a DVC-1310C digital camera (DVC, Austin, Tex.) was used and images were processed with Photoshop and analyzed with Image-ProPlus software (Media Cybernetics, Silver Spring, Md.), in order to measure Integrated Optic Density (IOD) of color-specific pixels and MBP fiber length. […]"}, "[3]": {"settings": "Dissociated cells, Passage 2, listed as noggin"}, "[4]": {"settings": "On Matrigel, noggin added at Step S"}, "[5]": {"settings": "On Matrigel, noggin added at Steps F and S"}},
  "note": "“Also recorded” adds a separate entry of the source.",
  "data": [
    {"substance": "bFGF: recombinant human basic fibroblast growth factor", "values": [
      {"measurement": "induction of Nkx2.2", "setting": "human ES cells; protocol based on bFGF treatment with neither RA nor noggin, FIG. 1b", "result": "failed to induce Nkx2.2"},
      {"measurement": "effect of addition at step S (ripening of neurospheres)", "setting": "[1]; bFGF 20 ng/ml at step S", "result": "not found to be helpful"},
      {"measurement": "oligodendrocytes formed in the final differentiation step F", "setting": "[1]; bFGF alternating with EGF during step S (without noggin), step F with noggin", "result": "0.66±0.5"},
      {"measurement": "expansion of dissociated precursor cells", "setting": "[1]; combination of bFGF and EGF at step D2", "result": "better than EGF alone"}
    ]},
    {"substance": "Noggin", "values": [
      {"measurement": "expression of Oct4 and Rex1", "setting": "human ES cells; after step S with noggin", "result": "down-regulated"},
      {"measurement": "expression of myelin proteolipid protein (PLP)", "setting": "human ES cells; after step S with noggin", "result": "increasing"},
      {"measurement": "expression of PDGF-Rα", "setting": "human ES cells; after step S with noggin, FIG. 1a lane 3", "result": "decreased"},
      {"measurement": "expression of Nkx2.2 and Sox10", "setting": "human ES cells; after step S, noggin 50 ng/ml, FIG. 1a lane 3", "result": "seen only when noggin was added"},
      {"measurement": "number of MBP fibers/field", "setting": "Shiverer mice; cells cultured with vs without noggin", "result": "increased"},
      {"measurement": "increase in the number of MBP fibers", "setting": "Shiverer mice; huES-NSc treated 9 days with 50 ng/ml noggin at step D3, injected into third ventricule, four weeks", "result": "3.5-4 fold"},
      {"measurement": "myelin by electron microscopy", "setting": "shiverer brain slices; brain tissue transplanted with noggin-treated huES-NS cells, FIG. 5e,f", "result": "compacted myelin sheaths, with major dense lines, were formed"},
      {"measurement": "overall myelinating capacity (extent of MBP staining and mean length of MBP+ fibers)", "setting": "shiverer brain slices; noggin-treated vs untreated huES-NS cells, two weeks after implantation, FIG. 5g", "result": "markedly enhanced"},
      {"measurement": "oligodendrocytes formed in the differentiation step", "setting": "[1]; Dissociated cells, passage 2, noggin added at the early step S", "result": "1.77±1.2"},
      {"measurement": "Fold (with vs without noggin), number of oligodendrocytes per field", "setting": "[1]; Dissociated cells, Passage 2", "result": 9.1},
      {"measurement": "Number of oligodendrocytes per field", "setting": "[1]; Dissociated cells, Passage 2", "result": "5.20 ± 1.7"},
      {"measurement": "O4+ cells with ramified oligodendrocyte shape as share of total cells", "setting": "[1]; Dissociated cells, Passage 2", "result": "about 5%"},
      {"measurement": "total O4+ cells as share of total cells", "setting": "[1]; Dissociated cells, Passage 2", "result": "about 15%"},
      {"measurement": "Fold (with vs without noggin), number of oligodendrocytes per field", "setting": "[1]; [3]", "result": 9},
      {"measurement": "Number of oligodendrocytes per field", "setting": "[1]; [3]", "result": "5.20±1.7"},
      {"measurement": "Fold (with vs without noggin), number of oligodendrocytes per field", "setting": "[1]; Dissociated cells, Passage 3", "result": 7.1},
      {"measurement": "Number of oligodendrocytes per field", "setting": "[1]; Dissociated cells, Passage 3", "result": "10.14 ± 5.2"},
      {"measurement": "Fold (with vs without noggin), number of oligodendrocytes per field", "setting": "[1]; Dissociated cells, Passage 4", "result": 6.0},
      {"measurement": "Number of oligodendrocytes per field", "setting": "[1]; Dissociated cells, Passage 4", "result": "12.05 ± 3.6"},
      {"measurement": "Number of oligodendrocytes per field", "setting": "[1]; On Matrigel, noggin 50 ng/ml added at Step F, 6 days without growth factors, fields of 0.4 mm^2", "result": "5.76 ± 4.2"},
      {"measurement": "Fold (with vs without noggin), number of oligodendrocytes per field", "setting": "[1]; On Matrigel, noggin added at Step F", "result": 8.7},
      {"measurement": "Fold (with vs without noggin), number of oligodendrocytes per field", "setting": "[1]; [4]", "result": 2.2},
      {"measurement": "Number of oligodendrocytes per field", "setting": "[1]; [4]", "result": "1.50 ± 1.4"},
      {"measurement": "Fold (with vs without noggin), number of oligodendrocytes per field", "setting": "[1]; [5]", "result": 4.4},
      {"measurement": "Number of oligodendrocytes per field", "setting": "[1]; [5]", "result": "2.95 ± 1.7"},
      {"measurement": "proportion of oligodendrocytes of the total cells in the culture", "setting": "[1]; after sub-passages (passages 3 and 4), noggin during steps D and F", "result": 43, "unit": "%"},
      {"measurement": "number of well-developed oligodendrocytes displaying ramified branches", "setting": "[1]; on matrigel, 10 days without growth factors, FIGS. 1g-h", "result": "strong effect"},
      {"measurement": "number of MBP+ oligodendrocytes", "setting": "[2]", "result": "very significant stimulation; also recorded: strong stimulation"}
    ]}
  ]
}
